Source: US11771765B2, “Light augmented treatment method” (The Procter & Gamble Company, priority 2019, dated 2023)

Columns and labels:
M. furfur = M. furfur viability on mDixon agar plates after Piroctone Olamine and 409 nm light (Table 3); type: cell-based, Malassezia furfur; set-up: key to growth on mDixon agar plate (score): +: a continuous fungal lawn; +/−: a lawn with breaks allowing the agar to show; −: 0 to 5 colonies
Description: M. furfur is incubated for one hour with the indicated concentrations of Piroctone Olamine then a cell pellet of 4 OD*mL is collected by centrifugation so that most of the anti-fungal material has been removed. The cell pellet is suspended in 4.2 mL PBS and 1 mL samples are distributed to four 12 well plates and treated with light (409 nm, 1200 fc) for 1, 10 or 60 minutes or stored in the dark. Samples are processed as described previously with 600 uL diluted into 13 mL mDixon and 50 uL of the photolyzed cells are diluted into 50 uL of mDixon then three 40 uL+360 uL mDixon dilutions are prepared.
Where +=a continuous fungal lawn, +/−=a lawn with breaks allowing the agar to show, −=0 to 5 colonies
After the photolysis, 0.6 mL is added to 13 mL fresh mDixon and grown overnight but, in addition, 50 uL is added to 50 uL mDixon then that sample is diluted 3 more times 40 uL=>400 uL and 10 uL of each of the dilutions are plated in duplicate on mDixon agar plates.

C. albicans cells = experiment: Candida albicans spot plating after Piroctone Olamine and 409 nm light (Table 4); type: cell-based; set-up: key to spot plated growth (score): +: a continuous fungal lawn; +/−: a lawn with breaks allowing the agar to show; −: 0 to 5 colonies
Description: Potentiation of Piroctone Olamine by light exposure is also observed in Candida albicans. […] Cells are then diluted as indicated in the left column, and spot plated. Resulting growth is then scored, as explained above.

`Cc1cc(CC(C)CC(C)(C)C)n(O)c(=O)c1.NCCO` (stereo not drawn) [Piroctone Olamine, 1-Hydroxy-4-methyl-6-(2,4,4-trimethylpentyl)-2-pyridone monoethanolamine salt] was tested, and the “effect of light on viable cells” value (M. furfur; 8 ppm) was “no effect”, the “holding growth down overnight in the original samples” value (M. furfur; 8 ppm) was “does not hold M. furfur growth down overnight” and the “growth on mDixon agar plate (score)” value (M. furfur; 8 ppm 1 h, culture dilution 1:2, 409 nm light 1 min) was “+”. The “growth on mDixon agar plate (score)” value (M. furfur; 8 ppm 1 h, culture dilution 1:2, 409 nm light 10 min) was “+”, the “growth on mDixon agar plate (score)” value (M. furfur; 8 ppm 1 h, culture dilution 1:2, 409 nm light 60 min) was “+” and the “growth on mDixon agar plate (score)” value (M. furfur; 8 ppm 1 h, culture dilution 1:2, Dark) was “+”. For the same compound, the “growth on mDixon agar plate (score)” value (M. furfur; 8 ppm 1 h, culture dilution 1:20, 409 nm light 1 min) was “+”, the “growth on mDixon agar plate (score)” value (M. furfur; 8 ppm 1 h, culture dilution 1:20, 409 nm light 10 min) was “+” and the “growth on mDixon agar plate (score)” value (M. furfur; 8 ppm 1 h, culture dilution 1:20, 409 nm light 60 min) was “+”. The “growth on mDixon agar plate (score)” value (M. furfur; 8 ppm 1 h, culture dilution 1:20, Dark) was “+”, the “growth on mDixon agar plate (score)” value (M. furfur; 8 ppm 1 h, culture dilution 1:200, 409 nm light 1 min) was “+/−” and the “growth on mDixon agar plate (score)” value (M. furfur; 8 ppm 1 h, culture dilution 1:200, 409 nm light 10 min) was “+/−”. The “growth on mDixon agar plate (score)” value (M. furfur; 8 ppm 1 h, culture dilution 1:200, 409 nm light 60 min) was “+/−”, the “growth on mDixon agar plate (score)” value (M. furfur; 8 ppm 1 h, culture dilution 1:200, Dark) was “+/−” and the “growth on mDixon agar plate (score)” value (M. furfur; 8 ppm 1 h, culture dilution 1:2000, 409 nm light 1 min) was “+/−”. For the same compound, the “growth on mDixon agar plate (score)” value (M. furfur; 8 ppm 1 h, culture dilution 1:2000, 409 nm light 10 min) was “+/−”, the “growth on mDixon agar plate (score)” value (M. furfur; 8 ppm 1 h, culture dilution 1:2000, 409 nm light 60 min) was “+/−” and the “growth on mDixon agar plate (score)” value (M. furfur; 8 ppm 1 h, culture dilution 1:2000, Dark) was “+/−”. The “holding growth down overnight in the original samples” value (M. furfur; 16 and 32 ppm) was 16 and 32 ppm do, the fewer viable cells (M. furfur; 16 and 32 ppm, 1 minute of light exposure) was “about 10 fold” and the fewer cells (M. furfur; 16 and 32 ppm, longer light exposures) was > 100 fold. For the same compound, the “growth on mDixon agar plate (score)” value (M. furfur; 16 ppm 1 h, culture dilution 1:2, 409 nm light 1 min) was “+”, the “growth on mDixon agar plate (score)” value (M. furfur; 16 ppm 1 h, culture dilution 1:2, 409 nm light 10 min) was “+/−” and the “growth on mDixon agar plate (score)” value (M. furfur; 16 ppm 1 h, culture dilution 1:2, 409 nm light 60 min) was “+/−”. For the same compound, the “growth on mDixon agar plate (score)” value (M. furfur; 16 ppm 1 h, culture dilution 1:2, Dark) was “+”, the “growth on mDixon agar plate (score)” value (M. furfur; 16 ppm 1 h, culture dilution 1:20, 409 nm light 1 min) was “+/−” and the “growth on mDixon agar plate (score)” value (M. furfur; 16 ppm 1 h, culture dilution 1:20, 409 nm light 10 min) was “+/−”. For the same compound, the “growth on mDixon agar plate (score)” value (M. furfur; 16 ppm 1 h, culture dilution 1:20, 409 nm light 60 min) was “+/−”, the “growth on mDixon agar plate (score)” value (M. furfur; 16 ppm 1 h, culture dilution 1:20, Dark) was “+” and the “growth on mDixon agar plate (score)” value (M. furfur; 16 ppm 1 h, culture dilution 1:200, 409 nm light 1 min) was “+/−”. For the same compound, the “growth on mDixon agar plate (score)” value (M. furfur; 16 ppm 1 h, culture dilution 1:200, 409 nm light 10 min) was “− (0 to 5 colonies)”, the “growth on mDixon agar plate (score)” value (M. furfur; 16 ppm 1 h, culture dilution 1:200, 409 nm light 60 min) was “− (0 to 5 colonies)” and the “growth on mDixon agar plate (score)” value (M. furfur; 16 ppm 1 h, culture dilution 1:200, Dark) was “+/−”. The “growth on mDixon agar plate (score)” value (M. furfur; 16 ppm 1 h, culture dilution 1:2000, 409 nm light 1 min) was “+/−”, the “growth on mDixon agar plate (score)” value (M. furfur; 16 ppm 1 h, culture dilution 1:2000, 409 nm light 10 min) was “− (0 to 5 colonies)” and the “growth on mDixon agar plate (score)” value (M. furfur; 16 ppm 1 h, culture dilution 1:2000, 409 nm light 60 min) was “− (0 to 5 colonies)”. The “growth on mDixon agar plate (score)” value (M. furfur; 16 ppm 1 h, culture dilution 1:2000, Dark) was “+/−”, the “growth on mDixon agar plate (score)” value (M. furfur; 32 ppm 1 h, culture dilution 1:2, 409 nm light 1 min) was “+” and the “growth on mDixon agar plate (score)” value (M. furfur; 32 ppm 1 h, culture dilution 1:2, 409 nm light 10 min) was “+/−”. For the same compound, the “growth on mDixon agar plate (score)” value (M. furfur; 32 ppm 1 h, culture dilution 1:2, 409 nm light 60 min) was “+/−”, the “growth on mDixon agar plate (score)” value (M. furfur; 32 ppm 1 h, culture dilution 1:2, Dark) was “+” and the “growth on mDixon agar plate (score)” value (M. furfur; 32 ppm 1 h, culture dilution 1:20, 409 nm light 1 min) was “+/−”. The “growth on mDixon agar plate (score)” value (M. furfur; 32 ppm 1 h, culture dilution 1:20, 409 nm light 10 min) was “+/−”, the “growth on mDixon agar plate (score)” value (M. furfur; 32 ppm 1 h, culture dilution 1:20, 409 nm light 60 min) was “+/−” and the “growth on mDixon agar plate (score)” value (M. furfur; 32 ppm 1 h, culture dilution 1:20, Dark) was “+”. For the same compound, the “growth on mDixon agar plate (score)” value (M. furfur; 32 ppm 1 h, culture dilution 1:200, 409 nm light 1 min) was “+/−”, the “growth on mDixon agar plate (score)” value (M. furfur; 32 ppm 1 h, culture dilution 1:200, 409 nm light 10 min) was “+/−” and the “growth on mDixon agar plate (score)” value (M. furfur; 32 ppm 1 h, culture dilution 1:200, 409 nm light 60 min) was “− (0 to 5 colonies)”. For the same compound, the “growth on mDixon agar plate (score)” value (M. furfur; 32 ppm 1 h, culture dilution 1:200, Dark) was “+/−”, the “growth on mDixon agar plate (score)” value (M. furfur; 32 ppm 1 h, culture dilution 1:2000, 409 nm light 1 min) was “+/−” and the “growth on mDixon agar plate (score)” value (M. furfur; 32 ppm 1 h, culture dilution 1:2000, 409 nm light 10 min) was “− (0 to 5 colonies)”. The “growth on mDixon agar plate (score)” value (M. furfur; 32 ppm 1 h, culture dilution 1:2000, 409 nm light 60 min) was “− (0 to 5 colonies)”, the “growth on mDixon agar plate (score)” value (M. furfur; 32 ppm 1 h, culture dilution 1:2000, Dark) was “+/−” and the “spot plated growth (score)” value (C. albicans cells; 6 ppm, dilution 1:2, 15 minute 409 nm light) was “+”. The “spot plated growth (score)” value (C. albicans cells; 6 ppm, dilution 1:2, Dark) was “+”, the “spot plated growth (score)” value (C. albicans cells; 6 ppm, dilution 1:20, 15 minute 409 nm light) was “+” and the “spot plated growth (score)” value (C. albicans cells; 6 ppm, dilution 1:20, Dark) was “+”. For the same compound, the “spot plated growth (score)” value (C. albicans cells; 6 ppm, dilution 1:200, 15 minute 409 nm light) was “+/−”, the “spot plated growth (score)” value (C. albicans cells; 6 ppm, dilution 1:200, Dark) was “+/−” and the “spot plated growth (score)” value (C. albicans cells; 6 ppm, dilution 1:2000, 15 minute 409 nm light) was “+/−”. For the same compound, the “spot plated growth (score)” value (C. albicans cells; 6 ppm, dilution 1:2000, Dark) was “+/−”, the “growth with the addition of light” value (C. albicans cells; 12 and 24 ppm dose, 409 nm light 15 min) was “complete inhibition of growth” and the “spot plated growth (score)” value (C. albicans cells; 12 ppm, dilution 1:2, 15 minute 409 nm light) was “+”. The “spot plated growth (score)” value (C. albicans cells; 12 ppm, dilution 1:2, Dark) was “+”, the “spot plated growth (score)” value (C. albicans cells; 12 ppm, dilution 1:20, 15 minute 409 nm light) was “+/−” and the “spot plated growth (score)” value (C. albicans cells; 12 ppm, dilution 1:20, Dark) was “+”. For the same compound, the “spot plated growth (score)” value (C. albicans cells; 12 ppm, dilution 1:200, 15 minute 409 nm light) was “+/−”, the “spot plated growth (score)” value (C. albicans cells; 12 ppm, dilution 1:200, Dark) was “+/−” and the “spot plated growth (score)” value (C. albicans cells; 12 ppm, dilution 1:2000, 15 minute 409 nm light) was “− (0 to 5 colonies)”. For the same compound, the “spot plated growth (score)” value (C. albicans cells; 12 ppm, dilution 1:2000, Dark) was “+/−”, the “spot plated growth (score)” value (C. albicans cells; 24 ppm, dilution 1:2, 15 minute 409 nm light) was “+” and the “spot plated growth (score)” value (C. albicans cells; 24 ppm, dilution 1:2, Dark) was “+”. For the same compound, the “spot plated growth (score)” value (C. albicans cells; 24 ppm, dilution 1:20, 15 minute 409 nm light) was “+/−”, the “spot plated growth (score)” value (C. albicans cells; 24 ppm, dilution 1:20, Dark) was “+” and the “spot plated growth (score)” value (C. albicans cells; 24 ppm, dilution 1:200, 15 minute 409 nm light) was “+/−”. The “spot plated growth (score)” value (C. albicans cells; 24 ppm, dilution 1:200, Dark) was “+/−”, the “spot plated growth (score)” value (C. albicans cells; 24 ppm, dilution 1:2000, 15 minute 409 nm light) was “− (0 to 5 colonies)” and the “spot plated growth (score)” value (C. albicans cells; 24 ppm, dilution 1:2000, Dark) was “+/−”.
